Data reported in patent US8361970B2, “Growth factor binding molecules” (University of South Florida, priority 2000, dated 2013).

Assays:
B16-F10 melanoma = B16-F10 melanoma tumor growth in immune-competent mice; type: in vivo; settings: immune-competent mouse model
[1] = tested on: PDGF-stimulated PDGFR tyrosine phosphorylation; assay: Inhibition of PDGF-stimulated PDGFR tyrosine phosphorylation in NIH 3T3 cells (anti-phosphotyrosine Western blot); type: cell-based; settings: concentrations as high as 10 mM
[2] = tested on: EGF-stimulated EGFR tyrosine phosphorylation and Erk1/Erk2 activation; assay: EGF-stimulated EGFR tyrosine phosphorylation and Erk1/Erk2 activation in NIH 3T3 cells overexpressing EGFR; type: cell-based; settings: GFB-111 at concentrations as high as 100 μM
Protocol: (§1) Starved NIII 3T3 cells (PDGF-BB and PDGF-AA), NIH 3T3 cells overexpressing either EGFR (EGF) or Flk-1 (VEGF) are pre-treated with the indicated concentrations of GFB-111 for 5 minutes before 10 minutes of stimulation with PDGF-BB (10 ng/ml), PDGF-AA (10 ng/ml), EGF (100 ng/ml) and VEGF (50 ng/ml). Cell lysates are run on SDS-PAGE gels, then transferred to nitrocellulose and Western blotted with anti-phosphotyrosine (4G 10) or anti-phosphorylated Erk1/Erk2 (New England Biolabs).

[3] = tested on: PDGF-AA stimulated PDGF receptor phosphorylation and Erk1/Erk2 activation; assay: PDGF-AA stimulation of PDGF receptor phosphorylation and Erk1/Erk2 activation in NIH 3T3 cells; type: cell-based; settings: NIH 3T3, PDGF-AA 10 ng/ml
Protocol: as §1

[4] = tested on: IGF-1 stimulated IGF-1R tyrosine phosphorylation; assay: Inhibition of IGF-1 stimulated IGFR tyrosine phosphorylation in IGFR/3T3 cells; type: cell-based; settings: 100 μM; IGFR/3T3, IGF-1 stimulated
Protocol: The ability of the GFB library to block the ability of IGF-1 to stimulate the IFG-1 R tyrosine phosphorylation and MAP kinase activation is evaluated using the cell assay described above with IGF-1R/3T3 cells as target cell. […] A preferred embodiment of the invention is a compound that binds to an insulin-like growth factor-1, of the general structure III, wherein R is n-butyl, n-propyl, or benzyl, and X1, X2, X3, and X4 optionally comprise identical cyclic peptide loops of the general structure II, and wherein R1, R2, R3, and R4 are each amino acid side chains that define a tetrapeptide sequence, wherein said tetrapeptide is covalently attached at the amino and carboxy termini of said tetrapeptide to a 3-aminomethyl-5-aminobenzamide linking group.

Compound	Inhibition of growth of B16-F10 melanoma (B16-F10 melanoma)	Inhibition of PDGF-stimulated PDGFR tyrosine phosphorylation [1]	Effect on EGF-stimulated EGFR tyrosine phosphorylation and Erk1/Erk2 activation [2]	PDGF-AA stimulation of PDGF receptor phosphorylation and Erk1/Erk2 activation [3]	% Inhibition at 100 μM IGF1R-Y-P [4] [%]
GKGK [GFB-116]	effective	does not inhibit	–	–	–
CCCCOc1c2cc(C(=O)Nc3cc4cc(c3)C(=O)NCC(=O)N[C@@H](CC(=O)O)C(=O)NCC(=O)N[C@@H](Cc3ccc(O)cc3)C(=O)NC4)cc1Cc1cc(C(=O)Nc3cc4cc(c3)C(=O)NCC(=O)N[C@@H](CC(=O)O)C(=O)NCC(=O)N[C@@H](Cc3ccc(O)cc3)C(=O)NC4)cc(c1OCCCC)Cc1cc(C(=O)Nc3cc4cc(c3)C(=O)NCC(=O)N[C@@H](CC(=O)O)C(=O)NCC(=O)N[C@@H](Cc3ccc(O)cc3)C(=O)NC4)cc(c1OCCCC)Cc1cc(C(=O)Nc3cc4cc(c3)C(=O)NCC(=O)N[C@@H](CC(=O)O)C(=O)NCC(=O)N[C@@H](Cc3ccc(O)cc3)C(=O)NC4)cc(c1OCCCC)C2 [GFB-111]	–	–	does not affect	blocked	−12.4
